These results are taken from PubChem BioAssay (NCI).

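Each compound was tested at five concentrations against cells in 96-well plates for 48 hours. At the GI50, growth is halved. Definition used: TGI = concentration required for complete inhibition of growth.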

Common to all, as to assay: NCI tumour cell line growth inhibition, 48 h
For experiment [1], the system named is CAKI-1 renal.
The test system of experiment [2] is HCT-116 colon.
In experiment [3] the test system is LOX IMVI melanoma.
Experiment [4] has as its system NCI-H23 lung.
Experiment [5] relates to SK-MEL-5 melanoma.
The subject of experiment [6] is SNB-75 CNS.
The subject of experiment [7] is T-47D breast.
Experiment [8] concerns TK-10 renal.
Experiment [9] deals with UACC-257 melanoma.
For experiment [10], the system named is UO-31 renal.

Take `Cc1cc(Br)c2nsnc2c1[N+](=O)[O-]`: the GI50 in [1] was 1.6 µM; in experiment [2], 1.77 µM; in [3] it was 0.94 µM; in experiment [4], 1.9 µM; in [5], 3.88 µM; in experiment [6] it was 3.46 µM. The GI50 in experiment [7] is 0.921 µM; in experiment [8], 3.72 µM; in experiment [9] it was 3.87 µM; in experiment [10] it was 2.05 µM. Further, the TGI in [1] was found to be 3.26 µM; in experiment [2] it was 3.63 µM; in experiment [3], 3.07 µM; in experiment [4], 3.9 µM; in experiment [5], 13.8 µM; in experiment [6], 15.4 µM. The TGI in experiment [7] came out at 5.96 µM; in experiment [8] it was 12.4 µM; in experiment [9], 10.9 µM; in experiment [10] it was 8.23 µM.

`O=c1[nH]cc(CO)c(=O)[nH]1`: the GI50 in experiment [1], in experiment [2], in [3], in experiment [4], in [5] and in [6] was more than 100 µM throughout. Moreover, the GI50 in experiment [7], in [8], in experiment [9] and in experiment [10] was more than 100 µM throughout. In addition, the TGI in experiment [1], in experiment [2], in experiment [3], in experiment [4], in [5] and in experiment [6] was more than 100 µM each time. The TGI in experiment [7], in [8], in experiment [9] and in [10] was more than 100 µM throughout.

Turning to `CCc1ccc(Oc2nccc(-c3c(-c4ccc(F)cc4)ncn3C3CCNCC3)n2)cc1`, the GI50 is 5.5 µM in [1]; 5.84 µM in [2]; 4.78 µM in experiment [3]; 10.7 µM in experiment [4]; 4.22 µM in experiment [5]; 3.58 µM in [6]. Also, the GI50 was 4.3 µM in experiment [7], 4.24 µM in experiment [8], 4.34 µM in [9] and 3.63 µM in [10]. Moreover, the TGI came to 14.6 µM in experiment [1]; 13.9 µM in [2]; 10.2 µM in experiment [3]; 15.1 µM in experiment [4]; 7.71 µM in [5]; 10.7 µM in experiment [6]. In addition, the TGI in [7] was determined as 11.6 µM; in experiment [8], 7.93 µM; in experiment [9] it was 8.04 µM; in [10] it was 9.5 µM.

Turning to `O=C(NCCSSCCNC(=O)/C(Cc1ccc(O)c(Br)c1)=N/O)/C(Cc1ccc(O)c(Br)c1)=N/O`, the TGI in experiment [1] is 5.32 µM; in [2], 5.98 µM; in [3], 3.31 µM; in experiment [4] it was 13.1 µM; in experiment [5], 2.33 µM; in [6] it was more than 13.6 µM. The TGI is 13.1 µM in experiment [7], more than 22.4 µM in [8], more than 34.6 µM in experiment [9] and 8.58 µM in experiment [10].

With `O=C1c2cccc3cccc(c23)C(=O)N1CC#Cc1ccc2c3c(cccc13)C(=O)N(CCN1CCNCC1)C2=O`, the GI50 in experiment [1] was 2.72 µM; in [2], 2.12 µM; in experiment [3], 1.94 µM; in experiment [4], 2.38 µM; in experiment [5], 18.3 µM; in experiment [6] it was 4.49 µM. Besides, the GI50 in experiment [7] is 2.03 µM; in experiment [8], 2.61 µM; in [9], 18.5 µM; in experiment [10] it was 20.6 µM. In addition, the TGI in [1] was 10.5 µM; in experiment [2], 4.79 µM; in experiment [3], 3.87 µM; in experiment [4] it was 5.74 µM; in experiment [5], 36.4 µM; in experiment [6], 19.9 µM. For the same compound, the TGI stood at 5.11 µM in experiment [7], 7.54 µM in experiment [8], 38.1 µM in [9] and 84.8 µM in [10].

As for `COc1ccccc1N(C(C)=O)C1=C(Cl)C(=O)c2ccccc2C1=O`, the GI50 was 1.45 µM in experiment [1]; 0.76 µM in [2]; 2.29 µM in experiment [3]; 1.65 µM in experiment [4]; 1.19 µM in experiment [5]; 1.72 µM in experiment [6]. The GI50 is 0.382 µM in [7], 1.87 µM in experiment [8], 2.14 µM in [9] and 1.03 µM in experiment [10]. The TGI worked out at 3.3 µM in experiment [1]; 2.18 µM in experiment [2]; 8.08 µM in experiment [3]; 6 µM in [4]; 2.63 µM in experiment [5]; 7.6 µM in experiment [6]. Besides, the TGI in experiment [7] was determined as 2.95 µM; in [8] it was 3.3 µM; in experiment [9], 4.39 µM; in experiment [10] it was 2.56 µM.

Consider `S=C(Nc1ccc(Cl)cc1)SC1CCCCC1`, for which the TGI was more than 100 µM in experiment [1]; 70.8 µM in [2]; 42.8 µM in experiment [3]; 45.4 µM in experiment [4]; 30.5 µM in [5]; 74.4 µM in [6]. For the same compound, the TGI in [7] is more than 100 µM; in experiment [8] it was more than 100 µM; in experiment [9], 76.5 µM; in experiment [10], more than 100 µM.

On to `C[C@@H](Oc1cc(-c2cnn(C3CC4(CNC4)C3)c2)cnc1N)c1c(Cl)ccc(F)c1Cl`, for which the GI50 in experiment [1] was 7.58 µM; in [2], 2.09 µM; in [3], 1.96 µM; in [4], 1.97 µM; in experiment [5], 3.92 µM; in [6], 2.44 µM. The GI50 in [7] was 3.89 µM; in [8] it was 10.3 µM; in experiment [9], 1.79 µM; in experiment [10] it was 4.96 µM. Also, the TGI in experiment [1] is 21.4 µM; in experiment [2], 8.87 µM; in [3], 6.79 µM; in experiment [4], 16 µM; in experiment [5] it was 12.2 µM; in experiment [6], 9.29 µM. For the same compound, the TGI in experiment [7] was 16.7 µM; in [8], 22.5 µM; in experiment [9], 4.33 µM; in experiment [10] it was 18.3 µM.
